# Reference: patent publication US20260070945A1, “MACROCYCLIC IMMUNOMODULATORS” (Bristol-Myers Squibb Company, priority 2022, published 2026)
# *1 amine or outer side, *2 acyl side, *3 side chain or, on linkers, in order; H or OH if unused. Where a SMILES comes first, the peptide text is derived from it. Bridges are numbered along the chain shown (N, C = ends). [ ]: non-standard residue; d: D form. The star is where a group is joined. ξ: configuration not given here. Trp(1-CH2COOH) = N[C@@H](Cc1cn(CC(=O)O)c2ccccc12)C(=O)O; Phe(3-CF3) = N[C@@H](Cc1cccc(C(F)(F)F)c1)C(=O)O; Phe(4-CF3) = N[C@@H](Cc1ccc(C(F)(F)F)cc1)C(=O)O; Phe(4-COOH) = N[C@@H](Cc1ccc(C(=O)O)cc1)C(=O)O; Bip = N[C@@H](Cc1ccc(-c2ccccc2)cc1)C(=O)O; Phe(3-Me) = Cc1cccc(C[C@H](N)C(=O)O)c1; γGlu = O=C(O)[C@H](CCC(=O)[*:2])N[*:1]; NH(CH2)12COOH = O=C(O)CCCCCCCCCCCCN*; Val(3-OH) = CC(C)(O)[C@H](N)C(=O)O; 4Pal = N[C@@H](Cc1ccncc1)C(=O)O; Cha = N[C@@H](CC1CCCCC1)C(=O)O; Cit = NC(=O)NCCC[C@H](N)C(=O)O; Ile(3ξ) = CCC(C)[C@H](N)C(=O)O; Thr(3ξ) = CC(O)[C@H](N)C(=O)O; 12Ado = NCCCCCCCCCCCC(=O)O; Carboxymethyl = O=C(O)C*; NMeA = CN[C@@H](C)C(=O)O; Orn = NCCC[C@H](N)C(=O)O; Aun = NCCCCCCCCCCC(=O)O; Dab = NCC[C@H](N)C(=O)O; Dap = NC[C@H](N)C(=O)O; AEEA = NCCOCCOCC(=O)O; Sar = CNCC(=O)O
# Target: T1, PD-1/PD-L1 interaction (PE-labeled human PD-L1-Ig binding to Jurkat cell line over-expressing human PD-1) (Homo sapiens, UniProt Q15116)
# T1 construct: expressed in transfected cells; host or cells: Jurkat
# T1 sequence (Q15116 25-288): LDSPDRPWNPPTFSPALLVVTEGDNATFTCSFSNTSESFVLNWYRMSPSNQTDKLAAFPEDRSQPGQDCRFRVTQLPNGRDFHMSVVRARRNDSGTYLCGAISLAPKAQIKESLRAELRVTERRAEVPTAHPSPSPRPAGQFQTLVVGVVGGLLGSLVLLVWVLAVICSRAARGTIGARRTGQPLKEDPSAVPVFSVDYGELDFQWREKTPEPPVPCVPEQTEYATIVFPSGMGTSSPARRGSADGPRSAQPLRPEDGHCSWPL
# Test: Jurkat-PD-1 Cell Binding High-Content Screening Assay (CBA)
# Conditions: Jurkat-hPD-1 cells, PE-labeled PD-L1-Ig 20 nM final; read-out: Jurkat HPD1 PDL1 IC50
# How it was run: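 Cells 8×10^3/well, DMEM + 10% FCS; cpd 2 h, 37 °C; PE–PD-L1-Ig 20 nM final, 1 h; PFA fix + Hoechst 33342, 3× dPBS wash; high-content imager.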
row,IC50,SMILES
1,154 nM,Cc1cccc(C[C@@H]2NC(=O)[C@H](CC(=O)O)NC(=O)[C@H](Cc3ccc(OCC(=O)O)cc3)NC(=O)[C@H](C(C)O)NC(=O)CSC[C@@H](C(=O)N(C)CC(=O)NCCCCCCCCCCC(=O)O)NC(=O)[C@H](C(C)O)NC(=O)[C@H](C(C)C)NC(=O)[C@H](CC3CCCCC3)NC(=O)[C@H](CCN)NC(=O)[C@@H](CC(C)C)NC(=O)[C@H](C)N(C)C(=O)[C@H](C(C)C)NC(=O)[C@H](Cc3ccc(-c4ccccc4)cc3)NC(=O)[C@H](Cc3ccc(O)cc3)NC2=O)c1 (stereo partly drawn) [Example 2262] ({CH2CO}-[Thr(3ξ)]Y(Carboxymethyl)D[Phe(3-Me)]Y[Bip]V[NMeA][dL][Dab][Cha]V[Thr(3ξ)]C[Sar][Aun]-OH; thioether N-14)
2,19 nM,Cc1cccc(C[C@@H]2NC(=O)[C@H](CC(=O)O)NC(=O)[C@H](Cc3ccc(OCC(=O)O)cc3)NC(=O)[C@H](CN)NC(=O)CSC[C@@H](C(=O)N[C@@H](CCN)C(=O)NCCCCCCCCCCC(=O)O)NC(=O)[C@H]([C@@H](C)O)NC(=O)[C@H](C(C)C)NC(=O)[C@H](CC3CCCCC3)NC(=O)[C@H](CCN)NC(=O)[C@@H](CC(C)C)NC(=O)[C@H](C)N(C)C(=O)[C@H](Cc3ccc(O)cc3)NC(=O)[C@H](Cc3ccc(-c4ccccc4)cc3)NC(=O)[C@H](Cc3ccc(OCC(=O)O)cc3)NC2=O)c1 [Example 1258] ({CH2CO}-[Dap]Y(Carboxymethyl)D[Phe(3-Me)]Y(Carboxymethyl)[Bip]Y[NMeA][dL][Dab][Cha]VTC[Dab][Aun]-OH; thioether N-14)
3,44.6 nM,Cc1cccc(C[C@@H]2NC(=O)[C@H](CC(=O)O)NC(=O)[C@H](Cc3cn(CC(=O)O)c4ccccc34)NC(=O)[C@H]([C@@H](C)O)NC(=O)CSC[C@@H](C(=O)N[C@@H](CCN)C(=O)NCCCCCCCCCCC(=O)O)NC(=O)[C@H]([C@@H](C)O)NC(=O)[C@H](C(C)C)NC(=O)[C@H](CC3CCCCC3)NC(=O)[C@H](CCN)NC(=O)[C@@H](CC(C)C)NC(=O)[C@H](C)N(C)C(=O)[C@H](Cc3ccc(OCC(=O)O)cc3)NC(=O)[C@H](Cc3ccc(-c4ccccc4)cc3)NC(=O)[C@H](Cc3ccc(OCC(=O)O)cc3)NC2=O)c1 [Example 1304] ({CH2CO}-T[Trp(1-CH2COOH)]D[Phe(3-Me)]Y(Carboxymethyl)[Bip]Y(Carboxymethyl)[NMeA][dL][Dab][Cha]VTC[Dab][Aun]-OH; thioether N-14)
4,7.1 nM,Cc1cccc(C[C@@H]2NC(=O)[C@H](CC(=O)O)NC(=O)[C@H](Cc3ccc(OCC(=O)O)cc3)NC(=O)[C@H](C(C)O)NC(=O)CSC[C@@H](C(=O)NCCOCCOCC(=O)NCCCCCCCCCCC(=O)O)NC(=O)[C@H](C(C)O)NC(=O)[C@H](C(C)C)NC(=O)[C@H](CC3CCCCC3)NC(=O)[C@H](CCN)NC(=O)[C@@H](CC(C)C)NC(=O)[C@H](C)N(C)C(=O)[C@H](CCCNC(N)=O)NC(=O)[C@H](Cc3ccc(-c4ccccc4)cc3)NC(=O)[C@H](C(C)C)NC2=O)c1 (stereo partly drawn) [Example 2320] ({CH2CO}-[Thr(3ξ)]Y(Carboxymethyl)D[Phe(3-Me)]V[Bip][Cit][NMeA][dL][Dab][Cha]V[Thr(3ξ)]C[AEEA][Aun]-OH; thioether N-14)
5,10.4 nM,CCC(C)[C@@H]1NC(=O)[C@H](Cc2ccc(-c3ccccc3)cc2)NC(=O)[C@H](C(C)C)NC(=O)[C@H](Cc2c[nH]c3ccccc23)NC(=O)[C@H](CC(=O)O)NC(=O)[C@H](Cc2ccc(OCC(=O)O)cc2)NC(=O)[C@H](Cc2c[nH]cn2)NC(=O)CSC[C@@H](C(=O)NCCOCCOCC(=O)N[C@@H](CCC(=O)NCCOCCOCC(=O)N[C@@H](CCCCN)C(=O)NCCCCCCCCCCC(=O)O)C(=O)O)NC(=O)[C@H](CO)NC(=O)[C@H](C(C)C)NC(=O)[C@H](CC2CCCCC2)NC(=O)[C@H](CCN)NC(=O)[C@@H](CC(C)C)NC(=O)[C@H](C)N(C)C1=O (stereo partly drawn) [Example 2032] ({CH2CO}-HY(Carboxymethyl)DWV[Bip][Ile(3ξ)][NMeA][dL][Dab][Cha]VSC[AEEA][γGlu][AEEA]K[Aun]-OH; thioether N-14)
6,14.1 nM,CC(C)C[C@@H]1NC(=O)[C@H](Cc2c[nH]c3ccccc23)NC(=O)[C@H](CC(=O)O)NC(=O)[C@H](Cc2ccc(C(=O)O)cc2)NC(=O)[C@H](Cc2ccc(OCC(=O)O)cc2)NC(=O)CSC[C@@H](C(=O)N[C@@H](CCCN)C(=O)NCCOCCOCC(=O)NCCCCCCCCCCC(=O)O)NC(=O)[C@H](CCN)NC(=O)[C@H](C(C)C)NC(=O)[C@H](CC2CCCCC2)NC(=O)[C@H](CCN)NC(=O)[C@@H](CC(C)C)NC(=O)[C@H](C)N(C)C(=O)[C@H](C(C)C)NC(=O)[C@H](Cc2ccc(-c3ccccc3)cc2)NC1=O [Example 2150] ({CH2CO}-Y(Carboxymethyl)[Phe(4-COOH)]DWL[Bip]V[NMeA][dL][Dab][Cha]V[Dab]C[Orn][AEEA][Aun]-OH; thioether N-14)
7,9.5 nM,CC(C)C[C@H]1NC(=O)[C@H](C)N(C)C(=O)[C@H](C(C)C)NC(=O)[C@H](Cc2ccc(-c3ccccc3)cc2)NC(=O)[C@H](C(C)C)NC(=O)[C@H](Cc2c[nH]c3ccccc23)NC(=O)[C@H](CC(=O)O)NC(=O)[C@H](Cc2ccc(OCC(=O)O)cc2)NC(=O)[C@H](C(C)O)NC(=O)CSC[C@@H](C(=O)N[C@H](CC(N)=O)C(=O)NCCOCCOCC(=O)NCCCCCCCCCCCC(=O)O)NC(=O)[C@H](CCCN)NC(=O)[C@H](C(C)C)NC(=O)[C@H](CC2CCCCC2)NC(=O)[C@H](CCN)NC1=O (stereo partly drawn) [Example 2203] ({CH2CO}-[Thr(3ξ)]Y(Carboxymethyl)DWV[Bip]V[NMeA][dL][Dab][Cha]V[Orn]C[dN][AEEA][12Ado]-OH; thioether N-14)

# Same assay, conditions: PE-labeled PD-L1-Ig 20 nM final, Jurkat-hPD-1 cells; read-out: Jurkat HPD1 PDL1 IC50
row,IC50,SMILES
1,161 nM,Cc1cccc(C[C@@H]2NC(=O)[C@H](CC(=O)O)NC(=O)[C@H](Cc3ccc(OCC(=O)O)cc3)NC(=O)[C@H](Cc3ccncc3)NC(=O)CSC[C@@H](C(=O)N[C@@H](CCN)C(=O)NCCCCCCCCCCC(=O)O)NC(=O)[C@H](Cc3cnc[nH]3)NC(=O)[C@H](C(C)(C)O)NC(=O)[C@H](CC3CCCCC3)NC(=O)[C@H](CCN)NC(=O)[C@@H](CC(C)C)NC(=O)[C@H](C)N(C)C(=O)[C@H](Cc3ccc(OCC(=O)O)cc3)NC(=O)[C@H](Cc3ccc(-c4ccccc4)cc3)NC(=O)[C@H](Cc3ccc(OCC(=O)O)cc3)NC2=O)c1 [Example 2467] ({CH2CO}-[4Pal]Y(Carboxymethyl)D[Phe(3-Me)]Y(Carboxymethyl)[Bip]Y(Carboxymethyl)[NMeA][dL][Dab][Cha][Val(3-OH)]HC[Dab][Aun]-OH; thioether N-14)
2,45.1 nM,CC(=O)NCCCC[C@@H]1NC(=O)[C@H](C(C)(C)O)NC(=O)[C@H](CC2CCCCC2)NC(=O)[C@H](CCN)NC(=O)[C@@H](CC(C)C)NC(=O)[C@H](C)N(C)C(=O)[C@H](CCC(N)=O)NC(=O)[C@H](Cc2ccc(-c3ccccc3)cc2)NC(=O)[C@H](CC(C)C)NC(=O)[C@H](Cc2c[nH]c3ccccc23)NC(=O)[C@H](CC(=O)O)NC(=O)[C@H](Cc2ccc(C(=O)O)cc2)NC(=O)[C@H](Cc2ccc(OCC(=O)O)cc2)NC(=O)CSC[C@@H](C(=O)NCCOCCOCC(=O)NCCCCCCCCCCC(=O)O)NC1=O [Example 2459] ({CH2CO}-Y(Carboxymethyl)[Phe(4-COOH)]DWL[Bip]Q[NMeA][dL][Dab][Cha][Val(3-OH)]K(Ac)C[AEEA][Aun]-OH; thioether N-14)
3,64.1 nM,CC(C)C[C@H]1NC(=O)[C@H](C)N(C)C(=O)[C@H](Cc2ccc(C(=O)O)cc2)NC(=O)[C@H](Cc2ccc(-c3ccccc3)cc2)NC(=O)[C@H](Cc2ccc(C(=O)O)cc2)NC(=O)[C@H](Cc2cccc(C(F)(F)F)c2)NC(=O)[C@H](CC(=O)O)NC(=O)[C@H](Cc2ccc(C(=O)O)cc2)NC(=O)[C@H](C(C)O)NC(=O)CSC[C@@H](C(=O)N[C@@H](CCN)C(=O)NCCOCCOCC(=O)NCCOCCOCC(=O)NCCCCCCCCCCCCC(=O)O)NC(=O)[C@H](CC(=O)O)NC(=O)[C@H](C(C)C)NC(=O)[C@H](CC2CCCCC2)NC(=O)[C@H](CCN)NC1=O (stereo partly drawn) [Example 2615] ({CH2CO}-[Thr(3ξ)][Phe(4-COOH)]D[Phe(3-CF3)][Phe(4-COOH)][Bip][Phe(4-COOH)][NMeA][dL][Dab][Cha]VDC[Dab][AEEA][AEEA]-{NH(CH2)12COOH}; thioether N-14)
4,83.9 nM,CC(=O)NCCCC[C@@H]1NC(=O)[C@H](C(C)(C)O)NC(=O)[C@H](CC2CCCCC2)NC(=O)[C@H](CCN)NC(=O)[C@@H](CC(C)C)NC(=O)[C@H](C)N(C)C(=O)[C@H](CCC(N)=O)NC(=O)[C@H](Cc2ccc(-c3ccccc3)cc2)NC(=O)[C@H](Cc2ccc(OCC(=O)O)cc2)NC(=O)[C@H](Cc2cccc(C(F)(F)F)c2)NC(=O)[C@H](CC(=O)O)NC(=O)[C@H](Cc2ccc(OCC(=O)O)cc2)NC(=O)[C@H](Cc2ccc(C(F)(F)F)cc2)NC(=O)CSC[C@@H](C(=O)N[C@@H](CCN)C(=O)NCCCCCCCCCCCCC(=O)O)NC1=O [Example 2622] ({CH2CO}-[Phe(4-CF3)]Y(Carboxymethyl)D[Phe(3-CF3)]Y(Carboxymethyl)[Bip]Q[NMeA][dL][Dab][Cha][Val(3-OH)]K(Ac)C[Dab]-{NH(CH2)12COOH}; thioether N-14)
5,6.6 nM,Cc1cccc(C[C@@H]2NC(=O)[C@H](CC(=O)O)NC(=O)[C@H](Cc3ccc(OCC(=O)O)cc3)NC(=O)[C@H]([C@@H](C)O)NC(=O)CSC[C@@H](C(=O)N[C@@H](CCN)C(=O)NCCOCCOCC(=O)NCCCCCCCCCCCC(=O)O)NC(=O)[C@@H](C)NC(=O)[C@H](C(C)C)NC(=O)[C@H](CC3CCCCC3)NC(=O)[C@H](CCN)NC(=O)[C@@H](CC(C)C)NC(=O)[C@H](C)N(C)C(=O)[C@H](Cc3ccc(OCC(=O)O)cc3)NC(=O)[C@H](Cc3ccc(-c4ccccc4)cc3)NC(=O)[C@H](Cc3ccc(OCC(=O)O)cc3)NC2=O)c1 [Example 2670] ({CH2CO}-TY(Carboxymethyl)D[Phe(3-Me)]Y(Carboxymethyl)[Bip]Y(Carboxymethyl)[NMeA][dL][Dab][Cha]V[dA]C[Dab][AEEA][12Ado]-OH; thioether N-14)
